We go through 14 compounds from PubChem BioAssay (NCI).

The structures appear in SMILES notation. Several values for one entry are separate records, joined by “and”; a condition that tells them apart may be missing. Equal entries are not always repeated.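 Exposure lasted 48 hours, with cells grown in 96-well plates and compounds tested at five concentrations. GI50 = concentration required for 50% inhibition of growth. The concentration for full growth arrest is given as TGI.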

What all share (assay): inhibition of tumour cell growth, NCI panel, 48 h
Test [1] concerns BT-549 breast.
Test [2] has as its system NCI/ADR-RES ovarian.
For test [3], the system named is HCT-116 colon.
Test [4] relates to NCI-H226 lung.
Test [5] has as its system SK-MEL-28 melanoma.
Test [6] concerns EKVX NSCLC.
The test system of test [7] is CAKI-1 renal.
Test [8] relates to UO-31 renal.

Consider `O=C1OCC(c2ccc(O)c(O)c2)=C1c1cc(O)c(O)c(O)c1`, for which the GI50 in test [1] was 39 µM; in test [2], 0.0297 µM; in test [3], 18.1 µM; in test [4], 69 µM; in test [5], 38.5 µM; in test [6], 70.6 µM. The GI50 in test [7] was 14.3 µM; in test [8] it was 63.4 µM. Further, the TGI was more than 100 µM in test [1]; 18.8 µM in test [2]; 35.5 µM in test [3]; more than 100 µM in test [4]; more than 100 µM in test [5]; more than 100 µM in test [6]. In addition, the TGI is 27.9 µM in test [7] and more than 100 µM in test [8].
With `Cc1nc2sc(C(=O)Nc3cccc4ccccc34)c(N)c2cc1C(C)O` (configuration not stated), the GI50 is 0.264 µM in test [1]; 0.17 µM in test [2]; 0.233 µM in test [3]; 0.28 µM in test [4]; 0.882 µM in test [5]; 0.446 µM in test [6]. Besides, the GI50 in test [7] was 0.192 µM; in test [8], 0.268 µM. The TGI in test [1] is more than 13.8 µM; in test [3], more than 50 µM; in test [4], more than 50 µM; in test [5], more than 50 µM; in test [6], more than 50 µM; in test [7] it was more than 50 µM. This compound also came in with a TGI in test [8] of more than 48.3 µM.
Take `CC1=CC[C@@H]2[C@@H](CC[C@@]2(C)O)C(C)(C)[C@H]1CC[C@@H]1[C@@]2(C)CCC(=O)C(C)(C)O[C@@H]2CC[C@]1(C)O`: the TGI in test [1] is 57.8 µM; in test [2], 60.9 µM; in test [3], 42 µM; in test [4], 63.5 µM; in test [5], more than 100 µM; in test [6] it was more than 100 µM. The results for the TGI in test [7] and in test [8] were 96.6 µM and 49 µM, respectively.
On to `Brc1c[n+](Cc2ccc3ccccc3c2)cn1Cc1ccc2ccccc2c1`, for which the GI50 was 1.69 µM in test [1]; more than 100 µM in test [2]; 1.21 µM in test [3]; 2.24 µM in test [4]; 1.55 µM in test [5]; 9.93 µM in test [6]. Besides, the GI50 in test [7] is 2.03 µM; in test [8] it was 7.09 µM. Besides, the TGI is 3.18 µM in test [1]; more than 100 µM in test [2]; 2.49 µM in test [3]; 5.87 µM in test [4]; 3.09 µM in test [5]; 25 µM in test [6]. The results for the TGI in test [7] and in test [8] were 5.17 µM and 23.1 µM, respectively.
For `O=C(NNc1nc2cc(F)ccc2n2c(CN3CCOCC3)ccc12)c1ccccc1`, the GI50 in test [1] was 0.559 µM; in test [2], 0.211 µM; in test [3], 0.139 µM; in test [4], 0.45 µM; in test [5], 0.29 µM; in test [6] it was 0.142 µM. In addition, the GI50 in test [7] is 0.223 µM; in test [8], 0.0574 µM. Moreover, the TGI in test [1] was determined as 6.57 µM; in test [2], 2.37 µM; in test [3], 1.38 µM; in test [4], 2.4 µM; in test [5] it was 1.78 µM; in test [6], 1.7 µM. The TGI in test [7] is 1.5 µM; in test [8], 1.3 µM.
As to `COc1cc2c(cc1OC)C13CCN4CC5=CCOC(CC(=O)O)C(C5CC41)C3N2` (configuration not stated), the TGI in test [1], in test [2], in test [3], in test [4], in test [5] and in test [6] was more than 100 µM each time. Moreover, the TGI in test [7] and in test [8] was more than 100 µM in each case.
Take `CCCOC(=O)N[C@H]1CCc2c(Br)c(OC)c(OC)c(OC)c2-c2ccc(SC)c(=O)cc21`: the GI50 is 0.0223 µM in test [1]; 0.0345 µM in test [2]; 0.0248 µM in test [3]; 0.0341 µM in test [4]; 2.83 µM in test [5]; 0.0474 µM in test [6]. In addition, the GI50 in test [7] was 0.0339 µM; in test [8], 0.103 µM. The TGI in test [1] was 6.39 µM; in test [2], more than 57.4 µM; in test [3], 5.07 µM; in test [4] it was 6.71 µM; in test [5], 23.2 µM; in test [6], more than 100 µM. In addition, the results for the TGI in test [7] and in test [8] were 19.2 µM and 21.9 µM, respectively.
`Cc1cc(N(CCCl)CCCl)ccc1C=Nc1cccnc1`: the GI50 is 12.8 µM in test [1]; 12.1 µM in test [2]; 22.7 µM in test [3]; 0.306 µM in test [4]; more than 77.8 µM in test [5]; 30 µM in test [6]. The figures for the GI50 in test [7] and in test [8] were 2.46 µM and 12.4 µM, respectively. Further, the TGI in test [1] was 53.9 µM; in test [2], more than 95.4 µM; in test [3], more than 100 µM; in test [4], 1.79 µM; in test [5], more than 100 µM; in test [6], 98.9 µM. Moreover, the TGI was more than 43.1 µM in test [7] and more than 86.7 µM in test [8].
With `COc1ccccc1-c1cc2c3c(nc4ccccc42)C(=O)c2cccnc2-c3n1`, the GI50 was 13.3 µM in test [1]; 7.11 µM in test [2]; 4.89 µM in test [3]; 15.3 µM in test [4]; 18.4 µM in test [5]; 14.8 µM in test [6]. The values for the GI50 in test [7] and in test [8] were 13 µM and 11.1 µM, respectively. Moreover, the TGI in test [1] was 18.1 µM; in test [2], 32.6 µM; in test [3], 14.6 µM; in test [4], 33 µM; in test [5] it was 34.7 µM; in test [6], 45.4 µM. In addition, the TGI amounted to 27.2 µM in test [7] and 23.3 µM in test [8].
In the case of `O=C1C(=O)c2ccc(Br)cc2-c2cc(Br)ccc21`, the GI50 in test [1] is 7.69 µM; in test [2], 1.59 µM; in test [3] it was 0.587 µM; in test [4], more than 60.1 µM; in test [5], 5.52 µM; in test [6], more than 100 µM. Further, the GI50 in test [7] is 2.09 µM; in test [8], 5.61 µM. Besides, the TGI in test [1] was more than 95.3 µM; in test [2], 8.12 µM; in test [3], 1.43 µM; in test [4] it was more than 100 µM; in test [5], more than 55.5 µM; in test [6] it was more than 100 µM. Further, the TGI in test [7] is 9.92 µM; in test [8], more than 100 µM.
`OCCN1CCN(CCCN2c3ccccc3Sc3ccc(C(F)(F)F)cc32)CC1`: the GI50 in test [1] was 5.65 µM and 2.92 µM and 3.29 µM; in test [2], 3.28 µM and 10.8 µM and 9.73 µM; in test [3], 1.55 µM; in test [4], 5.3 µM and 12.7 µM and 12.3 µM; in test [5], 0.91 µM and 2.48 µM and 2.2 µM; in test [6], 5.18 µM and 11.6 µM and 10.4 µM. Further, the GI50 in test [7] is 2.61 µM and 11.3 µM and 6.93 µM; in test [8] it was 1.96 µM and 6.09 µM and 4.53 µM. The TGI in test [1] is 12.1 µM and 17.7 µM and 9.5 µM; in test [2] it was 10.4 µM and 23.4 µM and 23.5 µM; in test [3] it was 5.52 µM; in test [4] it was 11.8 µM and 27.6 µM and 25.7 µM; in test [5], 1.66 µM and 7.16 µM and 5.98 µM; in test [6], 12.7 µM and 29.2 µM and 30.4 µM. Moreover, the TGI in test [7] was 9.5 µM and 25.7 µM and 21.6 µM; in test [8], 8.84 µM and 21.2 µM and 20 µM.
Turning to `COc1ccc2c(c1)O/C(=C\c1cccc(OCC(=O)Nc3nc4ccccc4s3)c1)C2=O`, the GI50 is 26 µM in test [1]; 47 µM in test [2]; 24.1 µM in test [3]; 42 µM in test [4]; more than 72 µM in test [5]; 29 µM in test [6]. Also, the values for the GI50 in test [7] and in test [8] were 3.04 µM and 1.53 µM, respectively. The TGI is 97.6 µM in test [1]; more than 100 µM in test [2]; more than 100 µM in test [3]; more than 100 µM in test [4]; more than 100 µM in test [5]; more than 100 µM in test [6]. Also, the TGI in test [7] was more than 100 µM; in test [8], 3 µM.
Consider `O=S(=O)(Nc1ccc(-c2nc(-c3cccc(OCCN4CCOCC4)c3)c(-c3ccnc(Br)c3)[nH]2)cc1)c1ccccc1`, for which the GI50 in test [1] is 3.02 µM; in test [2], 4.18 µM; in test [3], 3.09 µM; in test [4] it was 3.1 µM; in test [5], 2.77 µM; in test [6] it was 3.4 µM. For the same compound, the GI50 was 2.56 µM in test [7] and 2.92 µM in test [8]. For the same compound, the TGI was more than 100 µM in test [1]; more than 100 µM in test [2]; more than 100 µM in test [3]; 40.6 µM in test [4]; 9.79 µM in test [5]; more than 100 µM in test [6]. In addition, the TGI is 14.5 µM in test [7] and more than 100 µM in test [8].
As to `C[C@@H]1O[C@@H](O[C@H]2C[C@@H](O)[C@]3(CO)C4C(CC[C@]3(O)C2)[C@@]2(O)CC[C@H](C3=CC(=O)OC3)[C@@]2(C)C[C@H]4O)[C@H](O)[C@H](O)[C@H]1O` (some centres not stated), the GI50 in test [1] is 0.0186 µM; in test [2], 0.0154 µM; in test [3], 0.0174 µM; in test [4] it was 0.0741 µM; in test [5], 0.0881 µM; in test [6], 0.0151 µM. Also, the GI50 in test [7] is 0.0166 µM; in test [8] it was 0.0165 µM. Also, the TGI in test [1] worked out at 0.0624 µM; in test [2] it was 0.0452 µM; in test [3], 0.056 µM; in test [4], 0.154 µM; in test [5], 0.164 µM; in test [6], 0.0518 µM. For the same compound, the values for the TGI in test [7] and in test [8] were 0.0679 µM and 0.0618 µM, respectively.
